According to patent US10626144B2, “Peptide derivatives and uses thereof” (Nosopharm, priority 2014, dated 2020):
Square brackets hold non-standard residues; d marks the D form. Peptide text beside a SMILES is read from it. * marks the point of attachment. ξ: configuration not given here. Pro(trans-4-F) = O=C(O)[C@@H]1C[C@@H](F)CN1; Phe(2-Cl) = N[C@@H](Cc1ccccc1Cl)C(=O)O; Phe(4-F) = N[C@@H](Cc1ccc(F)cc1)C(=O)O; Pro(4,4-F2) = O=C(O)[C@@H]1CC(F)(F)CN1; Dab(3S-OH) = NC[C@H](O)[C@H](N)C(=O)O; Gly(cPent) = N[C@H](C(=O)O)C1CCCC1; 3Pal = N[C@@H](Cc1cccnc1)C(=O)O; ΔZArg = N=C(N)NCC/C=C(\N)C(=O)O; Lys(Me) = CNCCCC[C@H](N)C(=O)O; dOrn = NCCC[C@@H](N)C(=O)O; Orn = NCCC[C@H](N)C(=O)O; Dab = NCC[C@H](N)C(=O)O; NH(CH2)5NH2 = NCCCCCN*; NH(CH2)4NH2 = NCCCCN*; ξAze = O=C(O)C1CCN1

Experiments:
Experiment in all cases: MIC, broth microdilution (CLSI), reference strain
Conditions in all cases: CAMHB
[1] = system: Staphylococcus aureus ATCC 13709
[2] = system: Escherichia coli ATCC 25922
[3] = system: Acinetobacter baumannii ATCC 19606
[4] = system: Pseudomonas aeruginosa ATCC 27853

Sa: MIC Staphylococcus aureus ATCC 13709 [1]	Ec: MIC Escherichia coli ATCC 25922 [2]	Ab: MIC Acinetobacter baumannii ATCC 19606 [3]	Pa: MIC Pseudomonas aeruginosa ATCC 27853 [4]	Structure (SMILES)
++ (≤8 μg/mL)	+ (≤32 μg/mL)	− (>32 μg/mL)	− (>32 μg/mL)	C[C@H](NC(=O)[C@@H](NC(=O)[C@@H](N)CCCCN)[C@@H](O)CN)C(=O)NCC(=O)N[C@H](CCCN)C(=O)N1CCC[C@H]1C(=O)N[C@@H](Cc1ccc(F)cc1)C(=O)N[C@@H](CCCCN)C(=O)N/C(=C\CCNC(=N)N)C(=O)O [24.102] (H-K[Dab(3S-OH)]AG[dOrn]P[Phe(4-F)]K[ΔZArg]-OH)
++ (≤8 μg/mL)	+ (≤32 μg/mL)	− (>32 μg/mL)	− (>32 μg/mL)	N=C(N)NCC/C=C(\NC(=O)[C@H](CCCCN)NC(=O)[C@H](Cc1cnc[nH]1)NC(=O)[C@@H]1CCCN1C(=O)[C@@H](CCCN)NC(=O)CNC(=O)[C@H](CCCCN)NC(=O)[C@@H](NC(=O)[C@@H](N)CCCCN)[C@@H](O)CN)C(=O)O [215.1] (H-K[Dab(3S-OH)]KG[dOrn]PHK[ΔZArg]-OH)
+ (≤32 μg/mL)	− (>32 μg/mL)	− (>32 μg/mL)	− (>32 μg/mL)	C[C@H](NC(=O)[C@@H](NC(=O)[C@@H](N)CCCCN)[C@@H](O)CN)C(=O)NCC(=O)N[C@H](CCCN)C(=O)N1CCC[C@H]1C(=O)N[C@@H](C)C(=O)N[C@@H](CCCCN)C(=O)N/C(=C\CCNC(=N)N)C(=O)O [24.158] (H-K[Dab(3S-OH)]AG[dOrn]PAK[ΔZArg]-OH)
++ (≤8 μg/mL)	+ (≤32 μg/mL)	− (>32 μg/mL)	− (>32 μg/mL)	C[C@H](NC(=O)[C@@H](NC(=O)[C@@H](N)CCCCN)[C@@H](O)CN)C(=O)NCC(=O)N[C@H](CCCN)C(=O)N1CCC[C@H]1C(=O)N[C@@H](Cc1ccccc1Cl)C(=O)N[C@@H](CCCCN)C(=O)N/C(=C\CCNC(=N)N)C(=O)O [24.80] (H-K[Dab(3S-OH)]AG[dOrn]P[Phe(2-Cl)]K[ΔZArg]-OH)
++ (≤8 μg/mL)	++ (≤8 μg/mL)	− (>32 μg/mL)	− (>32 μg/mL)	COc1ccc(C[C@H](NC(=O)[C@@H]2CCCN2C(=O)[C@@H](CCCN)NC(=O)CNC(=O)[C@H](CCN)NC(=O)[C@@H](NC(=O)[C@@H](N)CCCCN)[C@@H](O)CN)C(=O)N[C@@H](CCCCN)C(=O)N/C(=C\CCNC(=N)N)C(=O)O)cc1 [21.10] (H-K[Dab(3S-OH)][Dab]G[dOrn]PY(Me)K[ΔZArg]-OH)
++ (≤8 μg/mL)	++ (≤8 μg/mL)	–	–	C[C@H](NC(=O)[C@@H](NC(=O)[C@@H](N)CCCCN)[C@@H](O)CN)C(=O)NCC(=O)N[C@H](CCCN)C(=O)N1CCC[C@H]1C(=O)N[C@@H](Cc1cnc[nH]1)C(=O)N[C@@H](CCCCN)C(=O)N/C(=C\CCNC(=N)N)C(N)=O [24.125] (H-K[Dab(3S-OH)]AG[dOrn]PHK[ΔZArg]-NH2)
–	–	− (>32 μg/mL)	− (>32 μg/mL)	C[C@H](NC(=O)[C@@H](NC(=O)[C@@H](N)CCCCN)[C@@H](O)CN)C(=O)NCC(=O)N[C@H](CCCN)C(=O)N1CCC[C@H]1C(=O)N[C@@H](Cc1cnc[nH]1)C(=O)N[C@@H](CCCCN)C(=O)N/C(=C\CCNC(=N)N)C(N)=O [24.5] (H-K[Dab(3S-OH)]AG[dOrn]PHK[ΔZArg]-NH2)

More lines, now with the values behind:

Structure (SMILES)	Sa: MIC Staphylococcus aureus ATCC 13709 [1]	Ec: MIC Escherichia coli ATCC 25922 [2]	Ab: MIC Acinetobacter baumannii ATCC 19606 [3]	Pa: MIC Pseudomonas aeruginosa ATCC 27853 [4]
CNCCCC[C@H](NC(=O)[C@H](Cc1cnc[nH]1)NC(=O)[C@@H]1CCCN1C(=O)[C@@H](CCCN)NC(=O)CNC(=O)[C@H](C)NC(=O)[C@@H](NC(=O)[C@@H](N)CCCCN)[C@@H](O)CN)C(=O)N[C@H](CCCNC(=N)N)C(N)=O [24.155] (H-K[Dab(3S-OH)]AG[dOrn]PH[Lys(Me)][dR]-NH2)	++ (≤8 μg/mL)	− (>32 μg/mL)	− (>32 μg/mL)	− (>32 μg/mL)
C[C@H](NC(=O)[C@H](CCN)NC(=O)[C@@H](N)CCCN)C(=O)NCC(=O)N[C@H](CCCN)C(=O)N1CCC[C@H]1C(=O)N[C@@H](Cc1cnc[nH]1)C(=O)N[C@@H](CCCCN)C(=O)N/C(=C\CCNC(=N)N)C(=O)N[C@@H](CCCCN)C(=O)NCCCCN [14.16] (H-[Orn][Dab]AG[dOrn]PHK[ΔZArg]K-{NH(CH2)4NH2})	++ (≤8 μg/mL)	− (>32 μg/mL)	− (>32 μg/mL)	− (>32 μg/mL)
C[C@H](NC(=O)[C@H](CCN)NC(=O)[C@@H](N)CCCCN)C(=O)NCC(=O)N[C@H](CCCN)C(=O)N1CCC1C(=O)N[C@@H](Cc1cnc[nH]1)C(=O)N[C@@H](CCCCN)C(=O)N/C(=C\CCNC(=N)N)C(=O)N[C@@H](CCCCN)C(=O)NCCCCN (some centres unmarked) [14.18] (H-K[Dab]AG[dOrn][ξAze]HK[ΔZArg]K-{NH(CH2)4NH2})	++ (≤8 μg/mL)	− (>32 μg/mL)	− (>32 μg/mL)	− (>32 μg/mL)
C[C@H](NC(=O)[C@@H](NC(=O)[C@@H](N)CCCCN)[C@@H](O)CN)C(=O)NCC(=O)N[C@H](CCCN)C(=O)N1CCC[C@H]1C(=O)N[C@@H](Cc1cccnc1)C(=O)N[C@@H](CCCCN)C(=O)N/C(=C\CCNC(=N)N)C(=O)N[C@@H](CCCCN)C(=O)NCCCCN [24.18] (H-K[Dab(3S-OH)]AG[dOrn]P[3Pal]K[ΔZArg]K-{NH(CH2)4NH2})	++ (≤8 μg/mL)	++ (≤8 μg/mL)	− (>32 μg/mL)	− (>32 μg/mL)
C[C@H](NC(=O)[C@@H](NC(=O)[C@@H](N)CCCCN)[C@@H](O)CN)C(=O)NCC(=O)N[C@H](CCCN)C(=O)N1CCC[C@H]1C(=O)N[C@@H](Cc1cnc[nH]1)C(=O)N[C@@H](CCCCN)C(=O)N/C(=C\CCNC(=N)N)C(=O)N[C@@H](CCCCN)C(=O)O [24.62] (H-K[Dab(3S-OH)]AG[dOrn]PHK[ΔZArg]K-OH)	++ (≤8 μg/mL)	+ (≤32 μg/mL)	− (>32 μg/mL)	− (>32 μg/mL)
CC[C@H](C)[C@H](NC(=O)/C(=C/CCNC(=N)N)NC(=O)[C@H](CCCCN)NC(=O)[C@H](Cc1cnc[nH]1)NC(=O)[C@@H]1CCCN1C(=O)[C@@H](CCCN)NC(=O)CNC(=O)[C@H](C)NC(=O)[C@@H](NC(=O)[C@@H](N)CCCCN)[C@@H](O)CN)C(=O)O [24.123] (H-K[Dab(3S-OH)]AG[dOrn]PHK[ΔZArg]I-OH)	+ (≤32 μg/mL)	− (>32 μg/mL)	− (>32 μg/mL)	− (>32 μg/mL)
N=C(N)NCC/C=C(\NC(=O)[C@H](CCCCN)NC(=O)[C@H](Cc1cnc[nH]1)NC(=O)[C@@H]1CCCN1C(=O)[C@@H](CCCN)NC(=O)CNC(=O)[C@@H](NC(=O)[C@@H](NC(=O)[C@@H](N)CCCCN)[C@@H](O)CN)[C@@H](O)CN)C(=O)N[C@@H](CCCCN)C(=O)O [22.29] (H-K[Dab(3S-OH)][Dab(3S-OH)]G[dOrn]PHK[ΔZArg]K-OH)	++ (≤8 μg/mL)	+ (≤32 μg/mL)	− (>32 μg/mL)	− (>32 μg/mL)
C[C@H](NC(=O)[C@@H](NC(=O)[C@@H](N)CCCCN)[C@@H](O)CN)C(=O)NCC(=O)N[C@H](CCCN)C(=O)N1CC(F)(F)C[C@H]1C(=O)N[C@@H](Cc1cnc[nH]1)C(=O)N[C@@H](CCCCN)C(=O)N/C(=C\CCNC(=N)N)C(=O)O [24.141] (H-K[Dab(3S-OH)]AG[dOrn][Pro(4,4-F2)]HK[ΔZArg]-OH)	++ (≤8 μg/mL)	− (>32 μg/mL)	− (>32 μg/mL)	− (>32 μg/mL)
C[C@H](NC(=O)[C@H](CCN)NC(=O)[C@@H](N)CCCCN)C(=O)NCC(=O)N[C@H](CCCN)C(=O)N1CCC[C@H]1C(=O)N[C@@H](Cc1cnc[nH]1)C(=O)N[C@@H](CCCCN)C(=O)N/C(=C\CCNC(=N)N)C(=O)NCCCCCN [14.20] (H-K[Dab]AG[dOrn]PHK[ΔZArg]-{NH(CH2)5NH2})	+ (≤32 μg/mL)	− (>32 μg/mL)	− (>32 μg/mL)	− (>32 μg/mL)
N=C(N)NCC/C=C(\NC(=O)[C@H](CCCCN)NC(=O)[C@H](Cc1cnc[nH]1)NC(=O)[C@@H]1CCCN1C(=O)[C@@H](CCCN)NC(=O)CNC(=O)[C@@H](NC(=O)[C@@H](NC(=O)[C@@H](N)CCCCN)[C@@H](O)CN)C1CCCC1)C(N)=O [220.1] (H-K[Dab(3S-OH)][Gly(cPent)]G[dOrn]PHK[ΔZArg]-NH2)	++ (≤8 μg/mL)	+ (≤32 μg/mL)	− (>32 μg/mL)	− (>32 μg/mL)
C[C@H](NC(=O)[C@H](CCN)NC(=O)[C@@H](N)CCCCN)C(=O)NCC(=O)N[C@H](CCCN)C(=O)N1C[C@H](F)C[C@H]1C(=O)N[C@@H](Cc1cnc[nH]1)C(=O)N[C@@H](CCCCN)C(=O)N/C(=C\CCNC(=N)N)C(=O)N[C@@H](CCCCN)C(=O)NCCCCN [14.7] (H-K[Dab]AG[dOrn][Pro(trans-4-F)]HK[ΔZArg]K-{NH(CH2)4NH2})	++ (≤8 μg/mL)	− (>32 μg/mL)	− (>32 μg/mL)	− (>32 μg/mL)
